Measured values: patent publication US20240150321A1, “PYRAZOLYLSULFONAMIDE COMPOUNDS AND THEIR USE IN THERAPY” (HOTSPOT THERAPEUTICS, INC., priority 2022, published 2024)

Legend:
[1] = target: Avi-tagged FL MALT-1 (Homo sapiens (Human), UniProt Q9UDY8); test: MALT-1 Fluorogenic Peptide Cleavage Assay (MALT1 inhibition assay); assay type: biochemical; settings: Ac-LRSR-AMC peptide substrate, 30 min pre-incubation, 90 min reaction at room temperature
In short: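 Cleavage of Ac-LRSR-AMC, read as fluorescence at 342/441 nm after 90 min at room temperature, with substrate working stocks of 50 μM (Km) or 280 μM (10×Km). Enzyme, Avi-tagged full-length MALT-1 (40 nM stock), was first pre-incubated 30 min with compound in citrate/HEPES pH 6.89 buffer with TCEP, EDTA, CHAPS and 2% DMSO; IC50 fitted from normalised % inhibition.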

[2] = system: NF-kB reporter in Jurkat cells; test: NF-kB reporter assay in Jurkat cells stimulated with aCD3/aCD28/PMA; assay type: cell-based; settings: Homo sapiens; Jurkat cells, 1 hr compound pre-incubation, aCD3/aCD28/PMA stimulation 4 hr, One-Glo readout; read-out: NF-kB Reporter Assay IC50
In short: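 Luminescence (One-Glo) from the NF-kB reporter yielded IC50 values. Stimulation lasted 4 h at 37° C with aCD3, aCD28 and PMA (final 5, 5 and 0.03 […]), after 1 h compound pre-exposure of 25,000 Jurkat cells per well in serum-free RPMI.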

Avi-tagged FL MALT-1, sequence (Q9UDY8 whole entry): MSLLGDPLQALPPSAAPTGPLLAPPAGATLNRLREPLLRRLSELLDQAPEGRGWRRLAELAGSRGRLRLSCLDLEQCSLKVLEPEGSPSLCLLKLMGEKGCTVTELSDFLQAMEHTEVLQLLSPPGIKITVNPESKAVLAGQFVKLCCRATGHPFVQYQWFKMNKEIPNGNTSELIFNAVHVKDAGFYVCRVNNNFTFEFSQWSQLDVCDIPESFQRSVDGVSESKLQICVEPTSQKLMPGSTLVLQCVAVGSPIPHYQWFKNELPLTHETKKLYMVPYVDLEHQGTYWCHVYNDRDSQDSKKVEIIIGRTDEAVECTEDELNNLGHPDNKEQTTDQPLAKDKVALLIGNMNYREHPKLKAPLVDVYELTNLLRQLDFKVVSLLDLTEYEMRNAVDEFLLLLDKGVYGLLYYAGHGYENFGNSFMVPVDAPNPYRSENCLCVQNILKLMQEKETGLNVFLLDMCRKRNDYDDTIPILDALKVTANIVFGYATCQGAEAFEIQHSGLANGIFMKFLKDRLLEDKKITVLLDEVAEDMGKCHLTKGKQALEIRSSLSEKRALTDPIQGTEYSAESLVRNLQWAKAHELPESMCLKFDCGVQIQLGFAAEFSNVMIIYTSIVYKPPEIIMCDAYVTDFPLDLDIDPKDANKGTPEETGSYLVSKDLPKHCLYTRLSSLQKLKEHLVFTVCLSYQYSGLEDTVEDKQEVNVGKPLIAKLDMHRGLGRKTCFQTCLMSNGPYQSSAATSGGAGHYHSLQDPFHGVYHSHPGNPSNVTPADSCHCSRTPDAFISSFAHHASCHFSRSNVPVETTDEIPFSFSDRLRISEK

| SMILES | IC50 [1] | IC50 [2] |
| --- | --- | --- |
| COc1ncc2cnn(C)c2c1NS(=O)(=O)c1cnn(-c2cc(C(F)(F)F)nn2C)c1 [Compound I-241] | > 2500 nM | > 2500 nM |
| Cn1nc2c(NS(=O)(=O)c3cnn(-c4cc(C(F)(F)F)ccn4)c3)cccc2c1Cl [Compound I-105, N-(3-chloro-2-methyl-2H-indazol-7-yl)-1-(4-(trifluoromethyl)pyridin-2-yl)-1H-pyrazole-4-sulfonamide] | > 2500 nM | 1000 to 2500 nM |
| CCc1ccc2cnn(C)c2c1NS(=O)(=O)c1cnn(-c2ccnc(OC(F)(F)F)c2)c1 [Compound I-61, N-(6-Ethyl-1-Methyl-1H-Indazol-7-yl)-1-(2-(Trifluoromethoxy) Pyridin-4-yl)-1H-Pyrazole-4-Sulfonamide] | 1000 to 2500 nM | 1000 to 2500 nM |
| CCc1ccc2cnn(C)c2c1NS(=O)(=O)c1cnn(-c2ccnc(N(C)C)c2)c1 [Compound I-41, 1-(2-(Dimethylamino)Pyridin-4-yl)-N-(6-ethyl-1-Methyl-1H-Indazol-7-yl)-1H-Pyrazole-4-Sulfonamide] | ≤ 400 nM | < 400 nM |
| COc1ccc2cnn(C)c2c1N(C)S(=O)(=O)c1cnn(-c2ccnc(C(F)(F)F)c2)c1 [Compound I-25, N-(6-Methoxy-1-Methyl-1H-Indazol-7-yl)-N-methyl-1-(2-(Trifluoromethyl)Pyridin-4-yl)-1H-Pyrazole-4-Sulfonamide] | ≤ 400 nM | < 400 nM |
| CN1CC(O)(c2ccnc(-n3cc(S(=O)(=O)Nc4cccc5cnn(C)c45)cn3)c2)C1 [Compound I-344] | > 2500 nM | > 2500 nM |
| COc1ccc2cnn(C)c2c1NS(=O)(=O)c1cnn(-c2cc(N3CCC(C)(C)C3)ccn2)c1 [Compound I-434] | > 2500 nM | < 400 nM |

Continued, values first:

| IC50 [1] | IC50 [2] | SMILES |
| --- | --- | --- |
| 400 to 1000 nM | < 400 nM | COc1ccc2cnn(C)c2c1NS(=O)(=O)c1cnn(-c2cc(C3(OC)CC(C)C3)ccn2)c1 (single isomer, unassigned) [Compound I-364, N-(6-methoxy-1-methyl-1H-indazol-7-yl)-1-(4-(1-methoxy-3-methylcyclobutyl)pyridin-2-yl)-1H-pyrazole-4-sulfonamide] |
| ≤ 400 nM | < 400 nM | [2H]C([2H])([2H])n1ncc2ccc(OC)c(NS(=O)(=O)c3cnn(-c4cc(C(C)(F)F)ccn4)c3)c21 [Compound I-412, 1-(4-(1,1-Difluoroethyl)Pyridin-2-yl)-N-(6-Methoxy-1-(Methyl-D3)-1H-Indazol-7-yl)-1H-Pyrazole-4-Sulfonamide] |
| ≤ 400 nM | < 400 nM | COc1ccc2cnn(C)c2c1NS(=O)(=O)c1cnn(-c2cc(C(C)OC)ccn2)c1 (single isomer, unassigned) [Compound I-290, N-(6-methoxy-1-methyl-1H-indazol-7-yl)-1-(4-(1-methoxyethyl)pyridin-2-yl)-1H-pyrazole-4-sulfonamide] |
| > 2500 nM | 1000 to 2500 nM | Cn1ncc2cccc(NS(=O)(=O)c3cnn([C@H]4CCCN(CC(F)(F)F)C4)c3)c21 [Compound I-329] |
| ≤ 400 nM | 400 to 1000 nM | CCc1ccc2cnn(C)c2c1NS(=O)(=O)c1cn(-c2ccnc(C(F)(F)F)c2)nc1C [Compound I-29, N-(6-Ethyl-1-Methyl-1H-Indazol-7-yl)-3-Methyl-1-(2-(Trifluoromethyl)Pyridin-4-yl)-1H-Pyrazole-4-Sulfonamide] |
| ≤ 400 nM | < 400 nM | Cc1ccc2[nH]nc(C)c2c1NS(=O)(=O)c1cnn(-c2cc(C(F)(F)F)ccn2)c1 [Compound I-67] |
| 1000 to 2500 nM | < 400 nM | COc1ccc2cnn(C)c2c1NS(=O)(=O)c1cnn(-c2cc(C3(C#N)CCCC3)ccn2)c1 [Compound I-449, 1-(4-(1-cyanocyclopentyl)pyridin-2-yl)-N-(6-methoxy-1-methyl-1H-indazol-7-yl)-1H-pyrazole-4-sulfonamide] |
